The target in this experiment is T1, Recombinant human CES1 (CES1b/CES1A1) (Homo sapiens, UniProt P23141).
T1 sequence (P23141 18-567): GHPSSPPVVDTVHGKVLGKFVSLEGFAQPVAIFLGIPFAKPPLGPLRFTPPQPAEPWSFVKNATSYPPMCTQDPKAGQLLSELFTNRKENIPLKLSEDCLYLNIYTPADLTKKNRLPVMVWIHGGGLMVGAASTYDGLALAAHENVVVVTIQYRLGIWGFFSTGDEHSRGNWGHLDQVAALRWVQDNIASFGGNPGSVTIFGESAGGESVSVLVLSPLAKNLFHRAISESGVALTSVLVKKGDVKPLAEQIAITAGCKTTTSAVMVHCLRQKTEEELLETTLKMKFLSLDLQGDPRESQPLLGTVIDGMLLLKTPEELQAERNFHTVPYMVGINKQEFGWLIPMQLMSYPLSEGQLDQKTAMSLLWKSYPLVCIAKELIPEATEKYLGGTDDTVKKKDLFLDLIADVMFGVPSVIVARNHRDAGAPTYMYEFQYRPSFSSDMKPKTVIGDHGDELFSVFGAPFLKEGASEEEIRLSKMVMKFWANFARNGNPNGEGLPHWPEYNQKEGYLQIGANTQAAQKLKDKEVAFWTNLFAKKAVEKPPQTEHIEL
Nature of the experiment: In vitro inhibition of recombinant CES1. To be noted: for IC50 relative to diltiazem: recombinant CES1, fold higher than IC50 of diltiazem. The class given is biochemical.

SMILES strings stand for the structures.

One may read the IC50 as the concentration that gives 50% inhibition. As to `C[C@H](CCC(=O)O)[C@H]1CC[C@H]2[C@@H]3[C@H](O)C[C@@H]4C[C@H](O)CC[C@]4(C)[C@H]3CC[C@]12C` [Chenodeoxycholic acid], the IC50 was 13.5 µM.

Regarding `C[C@H](CCC(=O)NCCS(=O)(=O)O)[C@H]1CC[C@H]2[C@@H]3[C@H](O)C[C@@H]4C[C@H](O)CC[C@]4(C)[C@H]3CC[C@]12C` [Taurochenodeoxycholic acid], the “IC50 relative to diltiazem” value is given as “more than fourfold higher”.

Consider `C[C@H](CCC(=O)NCC(=O)O)[C@H]1CC[C@H]2[C@@H]3[C@H](O)C[C@@H]4C[C@H](O)CC[C@]4(C)[C@H]3CC[C@]12C` [Glycochenodeoxycholic acid], for which the “IC50 relative to diltiazem” value is reported as about 10 fold.

`C[C@H](CCC(=O)NCCS(=O)(=O)O)[C@H]1CC[C@H]2[C@@H]3[C@H](O)C[C@@H]4C[C@H](O)CC[C@]4(C)[C@H]3C[C@H](O)[C@]12C` [Taurocholic acid]: the 50% inhibitory concentration (IC50) worked out at 19.5 µM.

These data come from PMC6118295 (CPT: Pharmacometrics & Systems Pharmacology, 2018).
